From patent US20240366701A1, “EXTRACT OF MYROTHAMNUS SP FOR PROMOTING HAIR GROWTH” (Lubrizol Advanced Materials, Inc., priority 2021, published 2024)

Tests used:
[1] = test system: Human Epidermal Keratinocyte cells (HEK); experiment: In vitro proliferation assay on keratinocyte cells (PrestoBlue); type: cell-based; settings: test concentration 10 (%, v/v), 24 h, negative control = 100.00
Description: Human Epidermal Keratinocyte cells (HEK) are grown to a density of 4500 cells/cm^2 in keratinocyte growth medium at 37° C. in 5% CO2 humidified air during 7 days. After this time, they are split and then seeded for treatment.
HEK are seeded at a density of 70000 cells/mL of culture medium in 96-well Cell Carrier black plates (PerkinElmer) in culture medium. After 24 hours incubation at 37° C. in 5% CO2 humidified air, medium is removed and fresh culture medium with dilutions of the test products. Cells treated with medium alone are used as negative control. Epidermal Growth Factor (EGF) is used as a positive control. After 24 hours incubation, live and dead cells are quantified with PrestoBlue® Cell Viability Reagent.
HEK quantification is quantified by fluorescence by using cell permeable resazurin-based solution PrestoBlue® from Thermo Fisher Scientific.
Stock solution of Example 1 and 2 are assayed in 3 independent experiments including 4 replicates in each experiment.

[2] = test system: Human Umbilical Vein Endothelial cells (HUVEC); experiment: In vitro new blood vessel (tube-like structure) formation; type: cell-based; settings: 5 ng/ml, 4 h, respect basal condition
Source text: Hair follicles get nourishment from blood flow in the skin having hair. Optimal irrigation of hair follicle increases its nourishment and stimulates the generation of new hair and improves hair growth and strength. Compounds able to generate new blood vessels in the hair follicle are good candidates for the cosmetic treatment of eyelash growth and strength. In vitro assessment of new blood vessels formation involves measurement of the ability of endothelial cells to form three-dimensional tube-like structures. Human Umbilical Vein Endothelial cells (HUVEC) mediate specific connections with extracellular matrix components generating differential forces which induces morphological changes and migration of HUVEC, leading to the formation of tube-like structures. The aim of this study is to evaluate the efficacy of the compound of the invention to generate new blood vessel tubes by means of measuring the ability of endothelial cells to form three-dimensional tube-like structures.
A 96 well plate is pre-coated with cold Extracellular Matrix Solution (Angiogenesis Assay kit, PromoKine) and incubated for 1 hour at 37° C. After the incubation, HUVEC cells are seeded in pre-coated wells at a density of 15,000 cells/well. Immediately, cells are treated with the stock solution of Example 2 dissolved in medium achieving a final well concentration of 0.5% (v/v). Vascular endothelial growth factor (VEGF) is used as positive control at a final well concentration of 5 ng/ml and cells treated with medium alone are used as a basal control. Cells are treated for 4 hours at 37° C. in 5% CO2 humidified air and then are stained with Staining Dye (Angiogenesis Assay kit, PromoKine) according to the manufacturer's protocol. Briefly, cells are washed and then Staining Dye solution was added. After a 30 minutes incubation at 37° C. in 5% CO2 humidified air, fluorescence images are captured using Operetta® confocal microscope (PerkinElmer, Inc) and new tubes formation is evaluated by ImageJ software.
New blood vessel tube formation is evaluated by the measurement of different parameters in each image acquired. […] Afterwards, the software quantifies more complex structures: • Segment length: number of pixels of each segment detected. • Master segment number: number of segments delimited by junctions without branch connection. • Master junction number: number of junctions which link at least three master segments. • Number of meshes: number of elements delimited by segments or master segments.
To consider an increase in new blood vessel tube formation, more than one of the parameters measured needs to be increased.
Results herein are the different measured parameters expressed as percentage normalized by basal condition.

Substance	Cell growth MEAN normalized with respect to the negative control [1]	% of number of master junctions (Mean ± SEM) [2] [%]	% of number of master segments (Mean ± SEM) [2] [%]	% of number of meshes (Mean ± SEM) [2] [%]	% of total segment length (Mean ± SEM) [2] [%]
Positive control (EGF): Epidermal Growth Factor used as a positive control	94.41				
VEGF		183.1 ± 31.1	196.5 ± 36.5	288.6 ± 75.9	160.1 ± 21.9
